# Measured values as given in US7776862B2, “Pyridyl and phenyl substituted piperazine-piperidines with CXCR3 antagonist activity” (Schering Corporation, priority 2005, dated 2010).
# Target: T1, human CXCR3 (N-delta 4) (Homo sapiens, UniProt P49682)
# T1 construct: CD8 leader; Flag tag; expressed in transfected cells; membranes used
# T1 sequence (P49682 5-368 limits assumed): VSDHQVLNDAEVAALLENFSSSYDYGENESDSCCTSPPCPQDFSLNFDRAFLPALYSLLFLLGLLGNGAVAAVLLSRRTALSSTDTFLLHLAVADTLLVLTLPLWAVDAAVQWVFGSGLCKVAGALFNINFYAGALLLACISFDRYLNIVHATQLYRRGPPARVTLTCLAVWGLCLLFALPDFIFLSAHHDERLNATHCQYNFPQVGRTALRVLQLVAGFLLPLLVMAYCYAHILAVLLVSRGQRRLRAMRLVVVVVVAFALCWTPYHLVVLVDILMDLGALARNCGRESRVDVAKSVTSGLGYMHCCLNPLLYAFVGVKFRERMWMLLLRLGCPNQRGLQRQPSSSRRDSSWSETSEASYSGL
# Experiment: Human CXCR3 (N-delta 4) scintillation proximity assay (SPA), [125I] IP-10 binding
# Conditions: IC50 rating; Ba/F3-hCXCR3 (N-delta 4) membranes, 25 pM [125I] IP-10
# Outline: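 Membranes from mouse Ba/F3 pro-B cells stably expressing Flag-tagged human CXCR3 (N-delta 4) were coupled to SPA beads. IP-10 was added together with titrated compounds to start the reaction, and bound radioligand was read by scintillation proximity.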
row,Compound,IC50
1,CCNC(=O)c1cnc(N2CCN(C3CCN([C@@H](CC)c4ccc(Cl)cc4)CC3)[C@@H](C)C2)c(Cl)c1 [compound 344],> 100 nM
2,COc1ccc(CNC(=O)c2cnc(N3CCN(C4CCN(Cc5ccc(C#N)cc5)CC4)CC3)c(Cl)c2)cc1 [compound 345],> 100 nM
3,O=C(NCc1ccc(F)c(F)c1)c1cnc(N2CCN(C3CCN(CCOc4ccc(F)cc4)CC3)CC2)c(Cl)c1 [compound 346],> 100 nM
4,CC[C@H]1CN(c2ncc(C(=O)NNC(N)=O)cc2Cl)CCN1C1CCN(Cc2ccc(Cl)cc2F)CC1 [compound 347],> 100 nM
5,C[C@H]1CN(c2ncc(C(=O)N3CCC3)cc2Cl)CCN1C1CCN(Cc2ccc(Cl)cc2)CC1 [compound 348],> 100 nM
6,CNC(=O)c1cnc(N2CCN(C3CCN(Cc4ccccc4Cl)CC3)[C@@H](C)C2)c(Cl)c1 [compound 349],> 100 nM
7,CC[C@H]1CN(c2ncc(C(=O)N=C(N)N)cc2Cl)CCN1C1CCN(Cc2ccc(Br)cc2F)CC1 [compound 350],> 100 nM
8,O=C(NCc1ccc(F)c(F)c1)c1cnc(N2CCN(C3CCN(C(=O)c4ccc(Cl)c(Cl)c4)CC3)CC2)c(Cl)c1 [compound 351],> 100 nM
9,CNC(=O)c1cnc(N2C[C@H](C)N(C3CCN(Cc4ccc(Cl)cc4F)CC3)C[C@H]2C)c(Cl)c1 [compound 352],> 100 nM
10,O=C(Nc1ccc(Cl)cn1)c1cnc(N2CCN(C3CCN(Cc4ccc(Cl)cc4)CC3)CC2)c(Cl)c1 [compound 353],> 100 nM
11,CNC(=O)c1cnc(N2CCN(C3CCN(Cc4ccc(F)cc4S(=O)(=O)N(C)c4ccc(Cl)cc4)CC3)[C@@H](C)C2)c(Cl)c1 [compound 354],> 100 nM
12,C[C@H]1CN(c2ncc(C(=O)N3CCCCC3)cc2Cl)CCN1C1CCN(Cc2ccc(Cl)cc2)CC1 [compound 355],> 100 nM
13,CC[C@H]1CN(c2ncc(C(=O)NC)cc2Cl)CCN1C1CCN(C2c3ccc(Cl)cc3CCc3cccnc32)CC1 (some centres unmarked) [compound 356],> 100 nM
14,C=CCNc1c(C(N)=O)cnc(N2CCN(C3CCN(Cc4ccc(Cl)cc4F)CC3)[C@@H](CC)C2)c1Cl [compound 357],> 100 nM
15,O=C(NCc1cccnc1)c1cnc(N2CCN(C3CCN(Cc4ccc(Cl)cc4)CC3)CC2)c(Cl)c1 [compound 358],> 100 nM
16,CNC(=O)c1cnc(N2CCN(C3CCN(/C(=N\C#N)c4ccc(Cl)cc4)CC3)[C@@H](C)C2)c(Cl)c1 [compound 359],> 100 nM
17,CNC(=O)c1cnc(N2CCN(C3CCN(Cc4c(C)cccc4C)CC3)[C@@H](C)C2)c(Cl)c1 [compound 360],> 100 nM
18,CNC(=O)c1cnc(N2CCN(C3CCN(C(=O)c4cc5cc(Cl)ccc5[nH]4)CC3)[C@@H](C)C2)c(Cl)c1 [compound 361],> 100 nM
19,O=C(NCc1ccc(F)c(F)c1)c1cnc(N2CCN(C3CCN(Cc4ccccc4)CC3)CC2)c(Cl)c1 [compound 362],> 100 nM
20,CC[C@H]1CN(c2ncc(C(=O)NC)c3ccccc23)CCN1C1CCN(Cc2ccc(Cl)cc2F)CC1 [compound 363],> 100 nM
21,O=C(NCCc1c[nH]c2ccccc12)c1cnc(N2CCN(C3CCN(Cc4ccc(Cl)cc4)CC3)CC2)c(Cl)c1 [compound 364],> 100 nM
22,CC[C@H]1CN(c2ncc(C(=O)NCc3ccc(F)c(F)c3)cc2Cl)CCN1C1CCN(C)CC1 [compound 365],> 100 nM

row,Compound,IC50
1,CNC(=O)c1cnc(N2CCN(C3CCN(Cc4c(F)cccc4F)CC3)[C@@H](C)C2)c(Cl)c1 [compound 366],> 100 nM
2,CC[C@H]1CN(c2ncc(CNC(=O)NC3CC3)cc2Cl)CCN1C1CCN(Cc2ccc(Br)cc2F)CC1 [compound 367],< 25 nM
3,CCNC(=O)NCc1cnc(N2CCN(C3CCN(Cc4ccc(Cl)cc4F)CC3)[C@@H](CC)C2)c(Cl)c1 [compound 368],< 25 nM
4,CC[C@H]1CN(c2ncc(CNC(=O)NCC(F)(F)F)cc2Cl)CCN1C1CCN(Cc2ccc(Cl)cc2F)CC1 [compound 369],< 25 nM
5,CC[C@H]1CN(c2ncc(CNC(=O)NC(C)C)cc2Cl)CCN1C1CCN(Cc2ccc(Cl)cc2F)CC1 [compound 370],< 25 nM
6,CC[C@H]1CN(c2ncc(CNC(=O)NCC(F)(F)F)cc2Cl)CCN1C1CCN(Cc2ccc(Br)cc2F)CC1 [compound 371],< 25 nM
7,CC[C@H]1CN(c2ncc(CNC(=O)NC3CC3)cc2Cl)CCN1C1CCN(Cc2ccc(Cl)cc2F)CC1 [compound 372],< 25 nM
8,CC[C@H]1CN(c2ncc(CNC(=O)NC(C)(C)C)cc2Cl)CCN1C1CCN(Cc2ccc(Cl)cc2F)CC1 [compound 373],< 25 nM
9,CC[C@H]1CN(c2ncc(CNC(=S)NC3CC3)cc2Cl)CCN1C1CCN(Cc2ccc(Cl)cc2F)CC1 [compound 374],< 25 nM
10,CC[C@H]1CN(c2ncc(CO)cc2Cl)CCN1C1CCN(Cc2ccc(Br)cc2)CC1 [compound 375],< 25 nM
11,CC[C@H]1CN(c2ncc(CNC(N)=O)cc2Cl)CCN1C1CCN(Cc2ccc(Br)cc2F)CC1 [compound 376],< 25 nM
12,CC[C@H]1CN(c2ncc(CNC(=O)NC)cc2Cl)CCN1C1CCN(Cc2ccc(Cl)cc2F)CC1 [compound 377],< 25 nM
13,CC[C@H]1CN(c2ncc(CNS(C)(=O)=O)cc2Cl)CCN1C1CCN(Cc2ccc(Br)cc2F)CC1 [compound 378],< 25 nM
14,CC[C@H]1CN(c2ncc(CNC(N)=O)cc2Cl)CCN1C1CCN(Cc2ccc(Cl)cc2F)CC1 [compound 379],< 25 nM
15,CC[C@H]1CN(c2ncc(CNS(C)(=O)=O)cc2Cl)CCN1C1CCN(Cc2ccc(Cl)cc2F)CC1 [compound 380],< 25 nM
16,CC[C@H]1CN(c2ncc(CN/C(=N\C#N)NCC(F)(F)F)cc2Cl)CCN1C1CCN(Cc2ccc(Cl)cc2F)CC1 [compound 381],< 25 nM
17,CCNC(=O)OCc1cnc(N2CCN(C3CCN(Cc4ccc(Cl)cc4F)CC3)[C@@H](CC)C2)c(Cl)c1 [compound 382],< 25 nM
18,CC[C@H]1CN(c2ncc(CO)cc2Cl)CCN1C1CCN(Cc2ccc(Br)cc2F)CC1 [compound 383],< 25 nM
19,CC[C@H]1CN(c2ncc(CNS(=O)(=O)N(C)C)cc2Cl)CCN1C1CCN(Cc2ccc(Br)cc2F)CC1 [compound 384],< 25 nM
20,CCNC(=O)NCc1cnc(N2CCN(C3CCN(Cc4ccc(Cl)cc4)CC3)[C@@H](C)C2)c(Cl)c1 [compound 385],< 25 nM
21,CC[C@H]1CN(c2ncc(CNS(=O)(=O)CC)cc2Cl)CCN1C1CCN(Cc2ccc(Cl)cc2F)CC1 [compound 386],< 25 nM
22,CC[C@H]1CN(c2ncc(CNC(C)=O)cc2Cl)CCN1C1CCN(Cc2ccc(Cl)cc2F)CC1 [compound 387],< 25 nM

row,Compound,IC50
1,CCCS(=O)(=O)NCc1cnc(N2CCN(C3CCN(Cc4ccc(Cl)cc4F)CC3)[C@@H](CC)C2)c(Cl)c1 [compound 388],< 25 nM
2,CC[C@H]1CN(c2ncc(CN/C(N)=N\C#N)cc2Cl)CCN1C1CCN(Cc2ccc(Cl)cc2F)CC1 [compound 389],< 25 nM
3,CC[C@H]1CN(c2ncc(CNC(=O)NC3CCCCC3)cc2Cl)CCN1C1CCN(Cc2ccc(Cl)cc2F)CC1 [compound 390],< 25 nM
4,CC[C@H]1CN(c2ncc(CNS(=O)(=O)N(C)C)cc2Cl)CCN1C1CCN(Cc2ccc(Cl)cc2F)CC1 [compound 391],< 25 nM
5,CC[C@H]1CN(c2ncc(CO)cc2Cl)CCN1C1CCN(Cc2ccc(Cl)cc2F)CC1 [compound 392],< 25 nM
6,CC[C@H]1CN(c2ncc(CNC)cc2Cl)CCN1C1CCN(Cc2ccc(Cl)cc2F)CC1 [compound 393],< 25 nM
7,CC[C@H]1CN(c2ncc(CNC(=N)N)cc2Cl)CCN1C1CCN(Cc2ccc(Cl)cc2F)CC1 [compound 394],< 25 nM
8,CC[C@H]1CN(c2ncc(CNC3CC3)cc2Cl)CCN1C1CCN(Cc2ccc(Cl)cc2F)CC1 [compound 395],< 25 nM
9,CC[C@H]1CN(c2ncc(CNC(=O)NCC(F)(F)F)cc2Cl)CCN1C1CCN(C(=O)c2ccc(Br)cc2)CC1 [compound 396],< 25 nM
10,CCNC(=O)NCc1cnc(N2CCN(C3CCN(Cc4ccc(Cl)cc4)CC3)[C@@H](CC)C2)c(Cl)c1 [compound 397],< 25 nM
11,CC[C@H]1CN(c2ncc(CNC(=O)Nc3ccc(F)c(F)c3)cc2Cl)CCN1C1CCN(Cc2ccc(Cl)cc2)CC1 [compound 400],< 25 nM
12,CC[C@H]1CN(c2ncc(CNC(=O)NN)cc2Cl)CCN1C1CCN(Cc2ccc(Cl)cc2F)CC1 [compound 401],< 25 nM
13,CC[C@H]1CN(c2ncc(COC(=O)Nc3c(C)noc3C)cc2Cl)CCN1C1CCN(Cc2ccc(Cl)cc2F)CC1 [compound 402],< 25 nM
14,CC[C@H]1CN(c2ncc(CN/C(=N\C#N)NC)cc2Cl)CCN1C1CCN(Cc2ccc(Cl)cc2F)CC1 [compound 403],< 25 nM
15,CC[C@H]1CN(c2ncc(C(N)=NO)cc2Cl)CCN1C1CCN(Cc2ccc(Cl)cc2F)CC1 [compound 404],< 25 nM
16,CC[C@H]1CN(c2ncc(COC(=O)NC(C)C)cc2Cl)CCN1C1CCN(Cc2ccc(Cl)cc2F)CC1 [compound 405],< 25 nM
17,CCNCc1cnc(N2CCN(C3CCN(Cc4ccc(Cl)cc4F)CC3)[C@@H](CC)C2)c(Cl)c1 [compound 406],< 25 nM
18,CC[C@H]1CN(c2ncc(CNc3nccs3)cc2Cl)CCN1C1CCN(Cc2ccc(Cl)cc2F)CC1 [compound 407],< 25 nM
19,CC[C@H]1CN(c2ncc(CNC(=O)N(C(=O)NC3CC3)C3CC3)cc2Cl)CCN1C1CCN(Cc2ccc(Br)cc2F)CC1 [compound 408],< 25 nM
20,CCNC(=O)N(CC)Cc1cnc(N2CCN(C3CCN(Cc4ccc(Cl)cc4F)CC3)[C@@H](CC)C2)c(Cl)c1 [compound 409],25 to 100 nM
21,CC[C@H]1CN(c2ncc(CNC(=O)N(C)C)cc2Cl)CCN1C1CCN(Cc2ccc(Cl)cc2F)CC1 [compound 410],25 to 100 nM
